{
  "source": "paper PMC7381750",
  "about": "“JP1 suppresses proliferation and metastasis of melanoma through MEK1/2 mediated NEDD4L-SP1-Integrin αvβ3 signaling” (Theranostics, 2020)",
  "test_system": "B16F10 cell",
  "test": "B16F10 melanoma-bearing model, JP1 and DTIC alone or in combination",
  "format": "in vivo, mouse",
  "experimental": "(A-C) (A) Schematic representation of the B16F10 and MEWO cells melanoma-bearing model for JP1 treatment (n = 6 per group). JP1 and its control agents were administered by intraperitoneal injection. […] (D-G) (D) Schematic representation of the B16F10 cell melanoma passive metastasis model for JP1 treatment. JP1 and its control agents were administered by intraperitoneal injection. […] (F) The representative melanoma lung metastatic images by H&E-staining (scale bars, 1000 μm). […] (J-L) (J) Schematic representation of the B16F10 cell melanoma-bearing model (n= 6 per group). Both JP1 and DTIC alone or in combination treatments and relative control was administered by intraperitoneal injection in mice.\nThe chemotherapeutic agent dacarbazine (DTIC) is currently as the first line drug used to treat metastatic melanoma in clinic, and was reported to cause painful symptoms and acquired resistance, compromising patient quality of life. To determine the possibility as a combination therapy between DTIC and JP1, we completed a joint treatment of DTIC and JP1 for melanoma tumor-bearing model (Figure 2J).",
  "data": [
    {"smiles": "CN(C)/N=N/c1[nH]cnc1C(N)=O", "note": "[DTIC, dacarbazine]", "values": [
      {"measurement": "body weight during treatment", "setting": "80 mg/kg DTIC i.p.", "result": "lost body weight continuously during treatment"},
      {"measurement": "inhibitory effect on melanoma proliferation", "setting": "80 mg/kg DTIC i.p., B16F10 melanoma-bearing mouse", "result": "more significant inhibitory effect on melanoma proliferation than that by 50 mg/kg JP1"},
      {"measurement": "liver HE staining", "setting": "after DTIC treatment", "result": "significant degenerations in liver cells"}
    ]}
  ]
}
